“And” between values parts separate entries of the source, which are not always exact repeats. Equal entries are not always repeated.
Legend:
EGFR (human) [1] = target: EGFR (human) (UniProt P00533); conditions: a431
EGFR (human) [2] = target: EGFR (human) (UniProt P00533); conditions: dher14
EGFR (human) [3] = target: EGFR (human) (UniProt P00533); conditions: A431

Chain of EGFR (human) (P00533 whole entry, looked up): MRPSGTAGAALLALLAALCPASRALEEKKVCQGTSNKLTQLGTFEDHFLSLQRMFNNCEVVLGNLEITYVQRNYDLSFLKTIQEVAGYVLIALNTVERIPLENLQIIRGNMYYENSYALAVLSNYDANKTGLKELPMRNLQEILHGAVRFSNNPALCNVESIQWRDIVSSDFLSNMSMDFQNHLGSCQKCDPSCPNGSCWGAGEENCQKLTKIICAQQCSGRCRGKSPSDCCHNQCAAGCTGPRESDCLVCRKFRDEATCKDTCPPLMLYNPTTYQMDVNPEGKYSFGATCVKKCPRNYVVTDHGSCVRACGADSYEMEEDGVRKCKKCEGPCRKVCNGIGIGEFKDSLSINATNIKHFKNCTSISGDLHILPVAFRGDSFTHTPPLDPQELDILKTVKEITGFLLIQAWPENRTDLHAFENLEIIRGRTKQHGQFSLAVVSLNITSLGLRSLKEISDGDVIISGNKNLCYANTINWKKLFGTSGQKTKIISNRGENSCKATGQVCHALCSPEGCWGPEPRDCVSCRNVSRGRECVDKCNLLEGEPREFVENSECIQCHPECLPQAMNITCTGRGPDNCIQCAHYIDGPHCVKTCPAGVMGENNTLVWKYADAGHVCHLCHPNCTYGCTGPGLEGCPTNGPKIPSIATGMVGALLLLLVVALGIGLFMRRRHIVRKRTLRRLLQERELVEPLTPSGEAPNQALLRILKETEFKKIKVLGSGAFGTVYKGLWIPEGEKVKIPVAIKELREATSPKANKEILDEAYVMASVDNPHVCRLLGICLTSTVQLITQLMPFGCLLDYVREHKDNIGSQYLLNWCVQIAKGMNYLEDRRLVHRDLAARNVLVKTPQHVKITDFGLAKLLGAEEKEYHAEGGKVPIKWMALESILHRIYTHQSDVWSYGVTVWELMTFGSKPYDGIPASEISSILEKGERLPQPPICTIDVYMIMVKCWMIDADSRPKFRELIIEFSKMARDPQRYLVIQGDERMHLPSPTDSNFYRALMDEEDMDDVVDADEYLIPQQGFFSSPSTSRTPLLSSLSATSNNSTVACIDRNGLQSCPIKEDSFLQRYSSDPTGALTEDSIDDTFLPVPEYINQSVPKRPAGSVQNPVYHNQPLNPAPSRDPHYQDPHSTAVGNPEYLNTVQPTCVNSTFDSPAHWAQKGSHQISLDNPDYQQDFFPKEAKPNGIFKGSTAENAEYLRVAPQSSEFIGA

What does the source list for `COCC(=O)Nc1ccc2ncnc(Nc3cc(Cl)c(Cl)cc3F)c2c1`?
IC50 (EGFR (human) [1]): 1 to 10 µM; IC50 (EGFR (human) [2]): > 0.25 µM

How did the IC50 (EGFR (human) [1]) turn out when `COCC(=O)Nc1ccc2ncnc(Nc3cccc(I)c3)c2c1` was run?
The IC50 was 1 to 5 µM.

With `COc1cc2ncnc(Nc3cc(Cl)c(Cl)cc3F)c2cc1OC` as the molecule, how does the IC50 (EGFR (human) [1]) read?
Its IC50 is 0.003 to 0.005 µM.

With `C=CC(=O)Nc1ccc2ncnc(Nc3cc(Cl)c(Cl)cc3F)c2c1` as the molecule, how does the IC50 (EGFR (human) [1]) read?
Its IC50 is 0.0067 to 0.02 µM.

Which IC50 (EGFR (human) [3]) does the source give for `C=CC(=O)Nc1cc2c(Nc3cccc(Br)c3)ncnc2cc1N1CCN(C)CC1` here?
The IC50 was 0.5 to 13 µM.

What about the IC50 (EGFR (human) [1]) of the same molecule?
Its IC50 is 0.05 to 0.25 µM.

How did the IC50 (EGFR (human) [1]) turn out when `O=C(CCl)Nc1ccc2ncnc(Nc3cc(Cl)c(Cl)cc3F)c2c1` was run?
The IC50 was 0.005 to 0.025 µM and 0.025 to 0.05 µM.
